Data from paper PMC4076210, “Discovery of Novel AKT Inhibitors with Enhanced Anti-Tumor Effects in Combination with the MEK Inhibitor” (PLoS ONE, 2014).
Read-outs that look alike come from different tables or passages of the source.

Assays:
[1] = biological target: T1, CaMKIIδ(h) (Homo sapiens, UniProt Q13557); assay: Kinase panel; format: biochemical
T1 construct: purchased Millipore KinaseProfiler

[2] = biological target: T2, CDK1/cyclinB(h) (Homo sapiens, UniProt P06493); assay: Kinase panel; format: biochemical
T2 construct: purchased Millipore KinaseProfiler

[3] = biological target: T3, EGFR(T790M)(h) (Homo sapiens, UniProt P00533, T790M); assay: Kinase panel; format: biochemical
T3 construct: purchased Millipore KinaseProfiler

[4] = biological target: T4, EphA5(h) (Homo sapiens, UniProt P54756); assay: Kinase panel; format: biochemical
T4 construct: purchased Millipore KinaseProfiler
T4 sequence (P54756 25-1037): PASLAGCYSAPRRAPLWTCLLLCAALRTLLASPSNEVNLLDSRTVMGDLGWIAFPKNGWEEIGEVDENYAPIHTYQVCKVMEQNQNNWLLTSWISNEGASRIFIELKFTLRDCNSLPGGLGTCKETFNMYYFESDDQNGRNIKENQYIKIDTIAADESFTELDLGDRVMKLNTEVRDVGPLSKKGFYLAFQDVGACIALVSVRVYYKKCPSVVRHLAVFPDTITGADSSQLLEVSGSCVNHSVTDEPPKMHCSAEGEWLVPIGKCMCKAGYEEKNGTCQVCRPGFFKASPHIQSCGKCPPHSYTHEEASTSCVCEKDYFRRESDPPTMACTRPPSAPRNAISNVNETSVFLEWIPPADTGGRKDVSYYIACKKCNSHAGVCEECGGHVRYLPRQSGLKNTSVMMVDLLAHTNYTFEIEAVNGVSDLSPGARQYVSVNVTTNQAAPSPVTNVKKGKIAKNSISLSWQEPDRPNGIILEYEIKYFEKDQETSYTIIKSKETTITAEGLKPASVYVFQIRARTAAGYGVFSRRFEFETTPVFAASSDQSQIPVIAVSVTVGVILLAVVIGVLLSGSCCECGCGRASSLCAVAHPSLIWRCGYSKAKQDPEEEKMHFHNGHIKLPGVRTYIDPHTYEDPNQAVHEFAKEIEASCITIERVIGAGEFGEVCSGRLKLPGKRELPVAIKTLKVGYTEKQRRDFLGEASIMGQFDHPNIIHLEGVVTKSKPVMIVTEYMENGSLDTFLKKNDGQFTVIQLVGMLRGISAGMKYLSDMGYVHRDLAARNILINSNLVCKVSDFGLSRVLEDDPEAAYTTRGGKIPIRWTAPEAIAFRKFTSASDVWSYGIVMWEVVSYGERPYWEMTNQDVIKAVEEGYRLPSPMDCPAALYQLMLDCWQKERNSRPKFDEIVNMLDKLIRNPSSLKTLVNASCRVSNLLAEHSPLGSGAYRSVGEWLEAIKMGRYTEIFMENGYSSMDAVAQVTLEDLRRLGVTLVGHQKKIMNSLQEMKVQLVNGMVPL

[5] = biological target: T5, FGFR3(h) (Homo sapiens, UniProt P22607); assay: Kinase panel; format: biochemical
T5 construct: purchased Millipore KinaseProfiler
T5 sequence (P22607 23-806): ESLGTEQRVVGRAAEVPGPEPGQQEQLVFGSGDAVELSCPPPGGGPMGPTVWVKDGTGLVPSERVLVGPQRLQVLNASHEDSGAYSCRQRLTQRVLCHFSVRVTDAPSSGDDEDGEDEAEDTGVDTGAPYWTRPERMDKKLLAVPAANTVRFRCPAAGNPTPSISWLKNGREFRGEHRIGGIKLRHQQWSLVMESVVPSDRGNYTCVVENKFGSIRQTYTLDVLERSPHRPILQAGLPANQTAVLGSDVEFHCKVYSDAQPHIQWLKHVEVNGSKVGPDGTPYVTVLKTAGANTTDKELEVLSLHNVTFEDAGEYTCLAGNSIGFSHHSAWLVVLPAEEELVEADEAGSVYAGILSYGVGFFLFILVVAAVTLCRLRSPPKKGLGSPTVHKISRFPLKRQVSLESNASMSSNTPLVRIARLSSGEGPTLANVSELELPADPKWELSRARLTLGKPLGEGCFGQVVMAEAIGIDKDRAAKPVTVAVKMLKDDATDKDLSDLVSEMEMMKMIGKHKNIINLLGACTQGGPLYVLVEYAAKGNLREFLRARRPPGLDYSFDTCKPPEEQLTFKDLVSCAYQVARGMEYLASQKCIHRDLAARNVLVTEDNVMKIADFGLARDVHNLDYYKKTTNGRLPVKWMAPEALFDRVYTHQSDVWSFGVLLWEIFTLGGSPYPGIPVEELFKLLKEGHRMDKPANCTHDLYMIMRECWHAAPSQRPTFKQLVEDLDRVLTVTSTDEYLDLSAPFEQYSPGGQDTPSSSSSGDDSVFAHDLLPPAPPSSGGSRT

[6] = biological target: T6, Flt1(h) (Homo sapiens, UniProt P17948); assay: Kinase panel; format: biochemical
T6 construct: purchased Millipore KinaseProfiler
T6 sequence (P17948 27-1338): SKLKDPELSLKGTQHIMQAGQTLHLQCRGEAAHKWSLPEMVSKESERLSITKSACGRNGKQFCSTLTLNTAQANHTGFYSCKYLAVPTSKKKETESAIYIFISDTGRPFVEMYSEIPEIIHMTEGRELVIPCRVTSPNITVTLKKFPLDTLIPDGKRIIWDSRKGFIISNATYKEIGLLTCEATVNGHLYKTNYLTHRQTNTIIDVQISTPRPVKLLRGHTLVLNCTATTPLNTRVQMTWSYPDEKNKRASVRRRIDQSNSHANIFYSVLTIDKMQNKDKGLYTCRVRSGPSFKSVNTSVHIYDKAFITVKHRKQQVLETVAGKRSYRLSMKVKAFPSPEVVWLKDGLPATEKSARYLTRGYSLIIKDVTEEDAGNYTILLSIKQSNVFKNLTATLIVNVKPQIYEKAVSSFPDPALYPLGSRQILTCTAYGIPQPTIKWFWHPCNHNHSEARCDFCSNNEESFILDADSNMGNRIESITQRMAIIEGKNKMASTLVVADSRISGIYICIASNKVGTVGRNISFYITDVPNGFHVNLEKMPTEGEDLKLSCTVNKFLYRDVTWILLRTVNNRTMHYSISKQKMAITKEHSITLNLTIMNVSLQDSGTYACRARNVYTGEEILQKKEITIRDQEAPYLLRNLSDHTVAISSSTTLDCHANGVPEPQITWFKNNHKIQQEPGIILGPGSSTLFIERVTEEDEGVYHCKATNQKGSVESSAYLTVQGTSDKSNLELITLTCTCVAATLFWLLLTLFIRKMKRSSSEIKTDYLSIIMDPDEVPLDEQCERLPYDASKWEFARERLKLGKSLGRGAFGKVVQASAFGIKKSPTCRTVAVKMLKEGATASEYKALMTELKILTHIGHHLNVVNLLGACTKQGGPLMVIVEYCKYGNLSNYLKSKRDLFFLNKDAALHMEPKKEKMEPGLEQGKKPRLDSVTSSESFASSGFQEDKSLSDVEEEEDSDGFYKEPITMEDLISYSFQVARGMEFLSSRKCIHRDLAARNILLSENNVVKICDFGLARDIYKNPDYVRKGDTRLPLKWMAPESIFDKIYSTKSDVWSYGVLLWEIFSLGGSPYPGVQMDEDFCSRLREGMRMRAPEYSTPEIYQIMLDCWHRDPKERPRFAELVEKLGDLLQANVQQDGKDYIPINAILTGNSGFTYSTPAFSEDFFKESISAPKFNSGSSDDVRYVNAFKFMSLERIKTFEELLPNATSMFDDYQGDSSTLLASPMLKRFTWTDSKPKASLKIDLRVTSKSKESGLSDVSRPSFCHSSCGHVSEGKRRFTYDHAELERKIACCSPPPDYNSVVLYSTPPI

[7] = biological target: T7, Fms(h) (Homo sapiens, UniProt P07333); assay: Kinase panel; format: biochemical
T7 construct: purchased Millipore KinaseProfiler

[8] = biological target: T8, IRAK1(h) (Homo sapiens, UniProt P51617); assay: Kinase panel; format: biochemical
T8 construct: purchased Millipore KinaseProfiler

[9] = biological target: T9, JNK3(h) (Homo sapiens, UniProt P53779); assay: Kinase panel; format: biochemical
T9 construct: purchased Millipore KinaseProfiler

[10] = system: MLCK(h); assay: Kinase panel; format: biochemical, human
[11] = biological target: T10, MSSK1(h) (Homo sapiens, UniProt Q9UPE1); assay: Kinase panel; format: biochemical
T10 construct: purchased Millipore KinaseProfiler
T10 sequence (Q9UPE1 whole entry): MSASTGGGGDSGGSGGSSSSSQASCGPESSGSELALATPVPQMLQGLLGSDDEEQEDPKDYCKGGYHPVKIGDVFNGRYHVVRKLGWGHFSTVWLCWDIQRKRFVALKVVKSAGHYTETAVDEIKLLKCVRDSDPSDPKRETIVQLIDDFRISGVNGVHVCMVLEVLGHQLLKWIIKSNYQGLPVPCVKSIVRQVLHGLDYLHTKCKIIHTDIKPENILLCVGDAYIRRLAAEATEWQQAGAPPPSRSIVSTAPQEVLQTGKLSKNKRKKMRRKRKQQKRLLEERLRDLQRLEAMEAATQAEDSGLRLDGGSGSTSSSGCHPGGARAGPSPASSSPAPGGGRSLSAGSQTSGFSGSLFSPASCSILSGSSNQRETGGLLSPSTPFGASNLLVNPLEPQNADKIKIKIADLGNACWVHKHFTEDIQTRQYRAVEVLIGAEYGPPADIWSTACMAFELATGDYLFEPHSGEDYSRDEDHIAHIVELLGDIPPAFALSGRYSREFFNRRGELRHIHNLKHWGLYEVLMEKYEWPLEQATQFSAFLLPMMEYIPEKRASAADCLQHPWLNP

[12] = biological target: T11, NEK3(h) (Homo sapiens, UniProt P51956); assay: Kinase panel; format: biochemical
T11 construct: purchased Millipore KinaseProfiler
T11 sequence (P51956 1-506): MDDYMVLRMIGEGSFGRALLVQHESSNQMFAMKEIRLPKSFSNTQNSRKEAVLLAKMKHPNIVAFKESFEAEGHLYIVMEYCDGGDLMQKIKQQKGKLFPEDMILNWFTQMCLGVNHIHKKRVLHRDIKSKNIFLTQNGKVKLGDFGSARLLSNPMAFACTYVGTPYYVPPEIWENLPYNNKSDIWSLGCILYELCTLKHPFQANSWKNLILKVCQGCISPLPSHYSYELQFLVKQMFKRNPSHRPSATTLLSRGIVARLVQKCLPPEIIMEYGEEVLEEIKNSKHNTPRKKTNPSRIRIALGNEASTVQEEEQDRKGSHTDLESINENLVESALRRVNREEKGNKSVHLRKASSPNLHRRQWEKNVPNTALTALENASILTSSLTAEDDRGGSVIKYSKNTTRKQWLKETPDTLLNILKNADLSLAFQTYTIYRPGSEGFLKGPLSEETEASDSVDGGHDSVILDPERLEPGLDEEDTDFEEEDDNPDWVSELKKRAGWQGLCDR

[13] = biological target: T12, p70S6K(h) (Homo sapiens, UniProt P23443); assay: Kinase panel; format: biochemical
T12 construct: purchased Millipore KinaseProfiler
T12 sequence (P23443 whole entry): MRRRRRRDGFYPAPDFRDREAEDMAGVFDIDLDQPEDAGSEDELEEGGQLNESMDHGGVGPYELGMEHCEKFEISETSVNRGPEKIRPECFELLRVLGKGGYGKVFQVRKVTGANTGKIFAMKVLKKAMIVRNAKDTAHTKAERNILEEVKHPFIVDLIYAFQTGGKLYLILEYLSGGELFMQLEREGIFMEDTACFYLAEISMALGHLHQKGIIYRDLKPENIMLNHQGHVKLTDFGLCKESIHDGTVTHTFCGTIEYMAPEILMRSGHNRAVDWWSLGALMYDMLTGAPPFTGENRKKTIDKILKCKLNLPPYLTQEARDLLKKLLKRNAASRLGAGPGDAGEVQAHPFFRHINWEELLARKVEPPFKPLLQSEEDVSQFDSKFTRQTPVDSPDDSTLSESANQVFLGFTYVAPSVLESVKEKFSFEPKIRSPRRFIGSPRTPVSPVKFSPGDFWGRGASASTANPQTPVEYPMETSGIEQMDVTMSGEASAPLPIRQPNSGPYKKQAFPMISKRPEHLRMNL

[14] = biological target: T13, PTK5(h) (Homo sapiens, UniProt P42685); assay: Kinase panel; format: biochemical
T13 construct: purchased Millipore KinaseProfiler

[15] = biological target: T14, Rsk2(h) (Homo sapiens, UniProt P51812); assay: Kinase panel; format: biochemical
T14 construct: purchased Millipore KinaseProfiler
T14 sequence (P51812 whole entry): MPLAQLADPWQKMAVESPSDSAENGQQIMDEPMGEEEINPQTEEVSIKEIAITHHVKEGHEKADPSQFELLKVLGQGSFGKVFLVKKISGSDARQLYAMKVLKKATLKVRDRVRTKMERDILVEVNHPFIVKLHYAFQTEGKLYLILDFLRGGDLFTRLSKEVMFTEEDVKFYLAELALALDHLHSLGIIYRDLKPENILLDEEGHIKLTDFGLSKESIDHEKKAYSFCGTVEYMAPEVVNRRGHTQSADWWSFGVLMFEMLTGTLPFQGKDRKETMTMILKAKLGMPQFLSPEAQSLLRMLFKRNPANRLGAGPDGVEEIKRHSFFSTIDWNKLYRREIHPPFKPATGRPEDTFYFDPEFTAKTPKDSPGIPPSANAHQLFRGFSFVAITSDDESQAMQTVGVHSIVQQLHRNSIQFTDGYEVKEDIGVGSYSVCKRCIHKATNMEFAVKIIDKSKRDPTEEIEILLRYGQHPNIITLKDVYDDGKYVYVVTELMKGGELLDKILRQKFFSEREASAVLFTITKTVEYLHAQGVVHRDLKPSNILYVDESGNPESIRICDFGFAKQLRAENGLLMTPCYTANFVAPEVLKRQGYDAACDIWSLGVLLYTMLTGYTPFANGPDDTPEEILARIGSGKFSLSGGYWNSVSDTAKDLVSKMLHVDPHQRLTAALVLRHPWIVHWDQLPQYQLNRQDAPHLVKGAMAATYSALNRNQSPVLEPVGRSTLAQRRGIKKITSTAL

[16] = biological target: T15, SGK(h) (Homo sapiens, UniProt O00141); assay: Kinase panel; format: biochemical
T15 construct: purchased Millipore KinaseProfiler
T15 sequence (O00141 1-431): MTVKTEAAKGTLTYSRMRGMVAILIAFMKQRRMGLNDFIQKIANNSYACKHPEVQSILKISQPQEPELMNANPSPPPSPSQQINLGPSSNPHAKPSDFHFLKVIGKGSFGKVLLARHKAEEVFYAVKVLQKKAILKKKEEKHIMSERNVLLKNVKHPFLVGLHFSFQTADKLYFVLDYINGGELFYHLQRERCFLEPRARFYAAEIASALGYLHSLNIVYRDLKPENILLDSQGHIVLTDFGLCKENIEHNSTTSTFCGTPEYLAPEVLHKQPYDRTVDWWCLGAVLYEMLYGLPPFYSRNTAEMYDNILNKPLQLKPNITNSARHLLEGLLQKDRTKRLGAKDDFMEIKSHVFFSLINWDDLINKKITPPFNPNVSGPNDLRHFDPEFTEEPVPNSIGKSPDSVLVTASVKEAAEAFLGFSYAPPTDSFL

[17] = biological target: T16, Src(T341M)(h) (Homo sapiens, UniProt P12931, T341M); assay: Kinase panel; format: biochemical
T16 construct: purchased Millipore KinaseProfiler

[18] = biological target: T17, Yes(h) (Homo sapiens, UniProt P07947); assay: Kinase panel; format: biochemical
T17 construct: purchased Millipore KinaseProfiler

[19] = system: phospho-PRAS40 in BT474 tumor xenografts; assay: In vivo dose response pharmacodynamic assay (phospho-PRAS40 ELISA); parameters: species or system mouse; settings: 2 h post last dose
Experimental: Protein lysates were analyzed by phospho-PRAS40 ELISA according to the methods described above. Concentration of the test compounds in the tissue and blood was analyzed using protein precipitation with acetonitrile, followed by HPLC/MS/MS analysis using positive ion atmospheric pressure chemical ionization or Turbo ionspray ionization (API 4000 or API 5000, Applied Biosystems). The lower level of detection of compound was 10 ng/mL and the assays were linear over a 100- to a 1000-fold drug concentration range.

With `Cn1ncc(Cl)c1-c1cc(C(=O)N[C@H](CN)Cc2cccc(F)c2)sc1Cl` [GSK2110183] the inhibition at 0.5 µM [1] was -20%, the inhibition at 10 µM [1] was 12% and the inhibition at 0.5 µM [2] was -3%. For the same compound, the inhibition at 10 µM [2] was 7%, the inhibition at 0.5 µM [3] was -1% and the inhibition at 10 µM [3] was 2%. For the same compound, the inhibition at 0.5 µM [4] was 5%, the inhibition at 10 µM [4] was 9% and the inhibition at 0.5 µM [5] was -6%. The inhibition at 10 µM [5] was 9%, the inhibition at 0.5 µM [6] was -35% and the inhibition at 10 µM [6] was -28%. It also gave an inhibition at 0.5 µM [7] of -1%, an inhibition at 10 µM [7] of 3% and an inhibition at 0.5 µM [8] of -5%. The inhibition at 10 µM [8] was 3%, the inhibition at 0.5 µM [9] was -5% and the inhibition at 10 µM [9] was 6%. The “% Inhibition” value ([10]; 0.5 µM) was 4%, the “% Inhibition” value ([10]; 10 µM) was 60% and the inhibition at 0.5 µM [11] was -1%. For the same compound, the inhibition at 10 µM [11] was 12%, the inhibition at 0.5 µM [12] was -14% and the inhibition at 10 µM [12] was -10%. The inhibition at 0.5 µM [13] was 78%, the inhibition at 10 µM [13] was 97% and the inhibition at 0.5 µM [14] was 4%. It also gave an inhibition at 10 µM [14] of 18%, an inhibition at 0.5 µM [15] of 63% and an inhibition at 10 µM [15] of 97%. The inhibition at 0.5 µM [16] was 36%, the inhibition at 10 µM [16] was 87% and the inhibition at 0.5 µM [17] was 24%. The inhibition at 10 µM [17] was 83%, the inhibition at 0.5 µM [18] was 2% and the inhibition at 10 µM [18] was 38%. The “decrease of PRAS40 phosphorylation in tumors” value (from here on “decrease”) ([19]; 10 mg/kg QDx7 oral) was 8%, the “decrease” value ([19]; 30 mg/kg QDx7 oral) was 37% and the “decrease” value ([19]; 100 mg/kg QDx7 oral) was 61%.
`Cn1ncc(Cl)c1-c1cc(C(=O)N[C@H](CN)Cc2ccc(F)c(F)c2)oc1Cl` [GSK2141795] showed an inhibition at 0.5 µM ([1]; 0.5 µM, read-out: % Inhibition) of 53%, an inhibition at 10 µM ([1]; 10 µM, read-out: % Inhibition) of 94% and an inhibition at 0.5 µM ([2]; 0.5 µM, read-out: % Inhibition) of -5%. The inhibition at 10 µM ([2]; 10 µM, read-out: % Inhibition) was 12%, the inhibition at 0.5 µM ([3]; 0.5 µM, read-out: % Inhibition) was -5% and the inhibition at 10 µM ([3]; 10 µM, read-out: % Inhibition) was 2%. For the same compound, the inhibition at 0.5 µM ([4]; 0.5 µM, read-out: % Inhibition) was -6%, the inhibition at 10 µM ([4]; 10 µM, read-out: % Inhibition) was 10% and the inhibition at 0.5 µM ([5]; 0.5 µM, read-out: % Inhibition) was -14%. The inhibition at 10 µM ([5]; 10 µM, read-out: % Inhibition) was 2%, the inhibition at 0.5 µM ([6]; 0.5 µM, read-out: % Inhibition) was -4% and the inhibition at 10 µM ([6]; 10 µM, read-out: % Inhibition) was 21%. For the same compound, the inhibition at 0.5 µM ([7]; 0.5 µM, read-out: % Inhibition) was -13%, the inhibition at 10 µM ([7]; 10 µM, read-out: % Inhibition) was 3% and the inhibition at 0.5 µM ([8]; 0.5 µM, read-out: % Inhibition) was -19%. For the same compound, the inhibition at 10 µM ([8]; 10 µM, read-out: % Inhibition) was -4%, the inhibition at 0.5 µM ([9]; 0.5 µM, read-out: % Inhibition) was -5% and the inhibition at 10 µM ([9]; 10 µM, read-out: % Inhibition) was 3%. The “% Inhibition” value ([10]; 0.5 µM) was 5%, the “% Inhibition” value ([10]; 10 µM) was 58% and the inhibition at 0.5 µM ([11]; 0.5 µM, read-out: % Inhibition) was -6%. For the same compound, the inhibition at 10 µM ([11]; 10 µM, read-out: % Inhibition) was 10%, the inhibition at 0.5 µM ([12]; 0.5 µM, read-out: % Inhibition) was 6% and the inhibition at 10 µM ([12]; 10 µM, read-out: % Inhibition) was 12%. For the same compound, the inhibition at 0.5 µM ([13]; 0.5 µM, read-out: % Inhibition) was 88%, the inhibition at 10 µM ([13]; 10 µM, read-out: % Inhibition) was 98% and the inhibition at 0.5 µM ([14]; 0.5 µM, read-out: % Inhibition) was 11%. The inhibition at 10 µM ([14]; 10 µM, read-out: % Inhibition) was 70%, the inhibition at 0.5 µM ([15]; 0.5 µM, read-out: % Inhibition) was 73% and the inhibition at 10 µM ([15]; 10 µM, read-out: % Inhibition) was 100%. The inhibition at 0.5 µM ([16]; 0.5 µM, read-out: % Inhibition) was 47%, the inhibition at 10 µM ([16]; 10 µM, read-out: % Inhibition) was 90% and the inhibition at 0.5 µM ([17]; 0.5 µM, read-out: % Inhibition) was 34%. It also gave an inhibition at 10 µM ([17]; 10 µM, read-out: % Inhibition) of 88%, an inhibition at 0.5 µM ([18]; 0.5 µM, read-out: % Inhibition) of -4% and an inhibition at 10 µM ([18]; 10 µM, read-out: % Inhibition) of 83%. For the same compound, the “decrease” value ([19]; 30 mg/kg QDx7 oral) was 62%.
